# In patent publication US20250041315A1, “LEVONORGESTREL BUTANOATE FORMULATION AND METHODS RELATING THERETO” (The USA, as Represented by the Secretary, Department of …, priority 2021, published 2025):
# Columns and labels:
# [1] = injections at 3-month intervals; cited from earlier work
# [2] = Effect of gamma irradiation sterilization on spray dried LNGB particles (colour, qualitative HPLC); assay type: physicochemical
# Experimental: In this comparative example, a sample of LNGB particles was prepared using a gamma irradiation step to sterilize spray dried particles. The LNGB particles were obtained by spray drying and then were subjected to gamma irradiation to evaluate the effect of irradiation on the particles. […] Qualitative HPLC was performed to compare the peak profiles of the LNGB particles before and after irradiation. FIGS. 2-5 show HPLC traces of the sample before (FIG. 2) and after (FIGS. 3-5) irradiation. Irradiated samples generated three major peaks, A, D, and E, at >0.15%, as well as a small peak, C, at ˜0.07%. […] In N2- and Ar-purged irradiated samples (FIGS. 4 and 5, respectively), peaks F and G were not resolved from other peaks (either degradation products or gradient artifacts).
SMILES,typical failure rate [1] [%],"major impurity peaks A, D, and E (HPLC) after irradiation ([2]; irradiated samples) [%]",small impurity peak C (HPLC) after irradiation ([2]; irradiated samples) [%],"colour of particles after gamma irradiation ([2]; spray dried particles, gamma irradiated, initial particles white/translucent)"
"CC(=O)O[C@]1(C(C)=O)CC[C@H]2[C@@H]3C[C@H](C)C4=CC(=O)CC[C@]4(C)[C@H]3CC[C@@]21C [DMPA, Depomedroxyprogesterone Acetate]",4,,,
"C#C[C@]1(OC(=O)CCC)CC[C@H]2[C@@H]3CCC4=CC(=O)CC[C@@H]4[C@H]3CC[C@@]21CC [LNGB particles, Levonorgestrel butanoate]",,> 0.15,~0.07,yellow color
